ChEMBL document CHEMBL4261636, “Design of Y2 Receptor Selective and Proteolytically Stable PYY3-36 Analogues” (J Med Chem, 2018)
Bridge positions count the residues as written; N and C are the ends. Square brackets hold non-standard residues; d marks the D form. Peptide text beside a SMILES is read from it. Ahx = NCCCCCC(=O)O

Columns and labels:
Homo sapiens [1] = species: Homo sapiens; assay: Selectivity ratio of Ki for human Y1R expressed in BHK-21 cell membranes to Ki for human Y2R expressed in CHO cell membranes; format: cell-based
Homo sapiens [2] = species: Homo sapiens; assay: Selectivity ratio of Ki for human Y4R expressed in CHO-K1 cell membranes to Ki for human Y2R expressed in CHO cell membranes; format: cell-based
Homo sapiens [3] = species: Homo sapiens; assay: Selectivity ratio of Ki for human Y5R expressed in HEK293 cell membranes to Ki for human Y2R expressed in CHO cell membranes; format: cell-based
[4] = biological target: T1, Neuropeptide Y receptor type 1 (Homo sapiens, UniProt P25929); assay: Displacement of [125I]-PYY(1 to 36 residues) from human Y1R expressed in BHK-21 cell membranes after 2 hrs by scintillation proximity assay
T1 sequence (P25929 whole entry): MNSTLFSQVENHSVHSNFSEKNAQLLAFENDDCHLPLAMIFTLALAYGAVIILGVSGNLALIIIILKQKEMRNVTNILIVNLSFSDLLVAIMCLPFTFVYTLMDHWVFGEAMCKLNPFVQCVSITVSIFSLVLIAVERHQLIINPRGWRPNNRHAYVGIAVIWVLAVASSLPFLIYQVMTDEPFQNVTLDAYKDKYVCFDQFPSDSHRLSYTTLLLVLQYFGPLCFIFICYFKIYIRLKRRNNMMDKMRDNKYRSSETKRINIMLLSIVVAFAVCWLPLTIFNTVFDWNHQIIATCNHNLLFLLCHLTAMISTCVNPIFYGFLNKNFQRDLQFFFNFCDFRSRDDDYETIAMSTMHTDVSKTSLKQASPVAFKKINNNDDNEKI

[5] = biological target: T2, Neuropeptide Y receptor type 2 (Homo sapiens, UniProt P49146); assay: Displacement of [125I]-PYY(1 to 36 residues) from human Y2R expressed in CHO cell membranes after 2 hrs by scintillation proximity assay
T2 sequence (P49146 whole entry): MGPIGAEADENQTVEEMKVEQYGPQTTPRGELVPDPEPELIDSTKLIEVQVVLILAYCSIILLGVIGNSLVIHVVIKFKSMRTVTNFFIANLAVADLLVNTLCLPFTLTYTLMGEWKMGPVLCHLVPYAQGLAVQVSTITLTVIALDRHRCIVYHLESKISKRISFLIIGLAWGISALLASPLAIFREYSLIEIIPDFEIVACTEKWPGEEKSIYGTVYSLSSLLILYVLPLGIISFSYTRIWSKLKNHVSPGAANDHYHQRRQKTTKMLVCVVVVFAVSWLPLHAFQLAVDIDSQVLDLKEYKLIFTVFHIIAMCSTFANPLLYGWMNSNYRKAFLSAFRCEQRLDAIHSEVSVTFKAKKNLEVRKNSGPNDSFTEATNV

[6] = biological target: T3, Neuropeptide Y receptor type 4 (Homo sapiens, UniProt P50391); assay: Displacement of [125I]-PP from human Y4R expressed in CHO-K1 cell membranes after 2 hrs by scintillation proximity assay
[7] = biological target: T4, Neuropeptide Y receptor type 5 (Homo sapiens, UniProt Q15761); assay: Displacement of [125I]-PYY(1 to 36 residues) from human Y5R expressed in HEK293 cell membranes after 2 hrs by scintillation proximity assay
T4 sequence (Q15761 whole entry): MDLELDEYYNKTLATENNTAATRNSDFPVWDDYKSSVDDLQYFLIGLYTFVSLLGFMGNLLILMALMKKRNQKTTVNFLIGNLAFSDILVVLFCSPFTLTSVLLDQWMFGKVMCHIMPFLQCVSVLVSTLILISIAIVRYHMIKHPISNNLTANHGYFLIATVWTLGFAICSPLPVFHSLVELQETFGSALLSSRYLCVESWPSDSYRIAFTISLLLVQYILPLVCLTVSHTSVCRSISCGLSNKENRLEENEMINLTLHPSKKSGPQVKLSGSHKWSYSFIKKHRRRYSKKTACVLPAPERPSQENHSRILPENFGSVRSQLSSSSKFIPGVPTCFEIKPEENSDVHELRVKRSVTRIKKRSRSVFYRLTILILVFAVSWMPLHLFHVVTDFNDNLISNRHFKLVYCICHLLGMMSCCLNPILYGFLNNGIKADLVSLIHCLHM

[8] = biological target: T1, Neuropeptide Y receptor type 1; assay: Activation of human Y1R expressed in HEK293 cells assessed as inhibition of isoproterenol-induced increase in intracellular cAMP levels by calcium 5 dye-based FLIPR assay; format: functional, cell-based; settings: for pEC50: hek293; for EC50: read-out: EC50
[9] = biological target: T2, Neuropeptide Y receptor type 2; assay: Activation of human Y2R expressed in HEK293 cells assessed as inhibition of isoproterenol-induced increase in intracellular cAMP levels by calcium 5 dye-based FLIPR assay; format: functional, cell-based; settings: read-out: EC50
[10] = biological target: T3, Neuropeptide Y receptor type 4; assay: Activation of human Y4R expressed in HEK293 cells assessed as inhibition of isoproterenol-induced increase in intracellular cAMP levels by calcium 5 dye-based FLIPR assay; format: functional, cell-based; settings: for pEC50: hek293
[11] = biological target: T4, Neuropeptide Y receptor type 5; assay: Activation of human Y5R expressed in HEK293 cells assessed as inhibition of isoproterenol-induced increase in intracellular cAMP levels by calcium 5 dye-based FLIPR assay; format: functional, cell-based

T3 sequence (P50391 whole entry, the tested form may be a part): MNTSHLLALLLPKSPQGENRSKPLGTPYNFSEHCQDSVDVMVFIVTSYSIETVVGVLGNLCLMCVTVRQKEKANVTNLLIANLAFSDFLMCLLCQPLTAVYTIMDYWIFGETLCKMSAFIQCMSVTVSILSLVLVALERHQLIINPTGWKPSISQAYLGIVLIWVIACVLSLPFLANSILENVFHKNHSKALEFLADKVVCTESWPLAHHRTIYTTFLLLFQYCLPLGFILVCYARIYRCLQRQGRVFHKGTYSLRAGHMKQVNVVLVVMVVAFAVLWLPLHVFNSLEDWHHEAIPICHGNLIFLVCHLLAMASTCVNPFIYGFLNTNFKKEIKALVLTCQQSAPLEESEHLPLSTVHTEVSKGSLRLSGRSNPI

| Structure (SMILES) | Ki [4] [nM] | Ki [5] [nM] | Ki [6] [nM] | Ki [7] [nM] | pEC50 [8] | EC50 [8] [nM] | EC50 [9] [nM] | EC50 [10] [nM] | pEC50 [10] | EC50 [11] [nM] | pKi ([4]; bhk-21) | Ratio Ki (Homo sapiens [1]) | Ratio Ki (Homo sapiens [2]) | Ratio Ki (Homo sapiens [3]) |
| --- | --- | --- | --- | --- | --- | --- | --- | --- | --- | --- | --- | --- | --- | --- |
| CC[C@H](C)[C@H](NC(=O)[C@H](Cc1ccc(O)cc1)NC(=O)[C@H](Cc1c[nH]cn1)NC(=O)[C@H](CCCN=C(N)N)NC(=O)CCCCCNC(=O)[C@H](CCCCN)NC(=O)[C@H](CO)NC(=O)[C@@H]1CCCN1C(=O)[C@@H](N)Cc1ccc(O)cc1)C(=O)N[C@@H](CC(N)=O)C(=O)N[C@@H](CC(C)C)C(=O)N[C@H](C(=O)N[C@H](C(=O)N[C@@H](CCCN=C(N)N)C(=O)N[C@@H](CCC(N)=O)C(=O)N[C@@H](CCCN=C(N)N)C(=O)N[C@@H](Cc1ccc(O)cc1)C(=O)O)[C@@H](C)O)[C@@H](C)CC (H-YPSK[Ahx]RHYINLITRQRY-OH) |  |  |  |  |  |  |  |  |  |  |  | 31 | 15 | 100 |
| CC[C@H](C)[C@@H]1NC(=O)[C@H](CC(C)C)NC(=O)[C@H](CC(N)=O)NC(=O)[C@@H](NC(=O)[C@H](Cc2ccc(O)cc2)NC(=O)[C@H](Cc2cnc[nH]2)NC(=O)[C@H](CCCNC(=N)N)NC(C)=O)CCC(=O)NCCCC[C@@H](C(=O)N[C@@H](CCCNC(=N)N)C(=O)N[C@@H](CCC(N)=O)C(=O)N[C@@H](CCCNC(=N)N)C(=O)N[C@@H](Cc2ccc(O)cc2)C(=O)O)NC1=O (Ac-RHYENLIKRQRY-OH; lactam 4-8) | > 10000 | 79 | 1600 | 5000 |  |  |  |  |  |  | < 5 | > 130 | 20 | 63 |
| CC[C@H](C)[C@@H]1NC(=O)[C@H](Cc2ccc(O)cc2)NC(=O)[C@H](Cc2cnc[nH]2)NC(=O)[C@H](CCCNC(=N)N)NC(=O)CCCCCNC(=O)[C@H](CCCCN)NC(=O)[C@H](CO)NC(=O)[C@@H](NC(=O)[C@@H](N)Cc2ccc(O)cc2)CCC(=O)NCCCC[C@@H](C(=O)N[C@H](C(=O)N[C@H](C(=O)N[C@@H](CCCNC(=N)N)C(=O)N[C@@H](CCC(N)=O)C(=O)N[C@@H](CCCNC(=N)N)C(=O)N[C@@H](Cc2ccc(O)cc2)C(=O)O)[C@@H](C)O)[C@@H](C)CC)NC(=O)[C@H](CC(N)=O)NC1=O (H-YESK[Ahx]RHYINKITRQRY-OH; lactam 2-11) | 500 | 2 | 25 | 630 | < 6 | > 1000 | 7.6 | > 1000 | < 6 | 500 |  | 250 | 13 | 320 |

Further lines, with some results ahead:

| Ki [4] [nM] | Ki [5] [nM] | Ki [6] [nM] | Ki [7] [nM] | pEC50 [8] | EC50 [8] [nM] | EC50 [9] [nM] | EC50 [10] [nM] | pEC50 [10] | EC50 [11] [nM] | pKi ([4]; bhk-21) | Structure (SMILES) | Ratio Ki (Homo sapiens [1]) | Ratio Ki (Homo sapiens [2]) | Ratio Ki (Homo sapiens [3]) |
| --- | --- | --- | --- | --- | --- | --- | --- | --- | --- | --- | --- | --- | --- | --- |
| 1300 | 1.3 | 50 | 790 | < 6 | > 1000 | 2 | > 1000 | < 6 | 400 |  | CC[C@H](C)[C@@H]1NC(=O)[C@@H](NC(=O)[C@@H](N)Cc2ccc(O)cc2)CCC(=O)NCCCC[C@@H](C(=O)N[C@H](C(=O)N[C@H](C(=O)N[C@@H](CCCNC(=N)N)C(=O)N[C@@H](CCC(N)=O)C(=O)N[C@@H](CCCNC(=N)N)C(=O)N[C@@H](Cc2ccc(O)cc2)C(=O)O)[C@@H](C)O)C(C)C)NC(=O)[C@H](CC(N)=O)NC(=O)[C@H](CC(C)C)NC(=O)[C@H](Cc2ccc(O)cc2)NC(=O)[C@H](Cc2cnc[nH]2)NC(=O)[C@H](CCCNC(=N)N)NC(=O)CCCCCNC(=O)[C@H](CCCCN)NC1=O | 1000 | 39 | 610 |
| 40 | 6.3 | 0.1 | 1.3 |  | 16 | 16 | 0.2 |  | 6.3 |  | CC[C@H](C)[C@H](NC(=O)[C@H](Cc1ccc(O)cc1)NC(=O)[C@H](CCCNC(=N)N)NC(=O)[C@H](CCCNC(=N)N)NC(=O)[C@H](CC(C)C)NC(=O)[C@H](CC(=O)O)NC(=O)[C@H](C)NC(=O)[C@H](C)NC(=O)[C@H](Cc1ccc(O)cc1)NC(=O)[C@H](CCC(N)=O)NC(=O)[C@H](C)NC(=O)[C@H](CCSC)NC(=O)[C@H](CCC(N)=O)NC(=O)[C@H](CCC(=O)O)NC(=O)[C@@H]1CCCN1C(=O)[C@@H](NC(=O)[C@H](C)NC(=O)[C@H](CC(N)=O)NC(=O)[C@H](CC(=O)O)NC(=O)CNC(=O)[C@@H]1CCCN1C(=O)[C@H](Cc1ccc(O)cc1)NC(=O)[C@@H](NC(=O)[C@@H]1CCCN1C(=O)[C@H](CCC(=O)O)NC(=O)[C@H](CC(C)C)NC(=O)[C@@H]1CCCN1C(=O)[C@H](C)N)C(C)C)[C@@H](C)O)C(=O)N[C@@H](CC(N)=O)C(=O)N[C@@H](CCSC)C(=O)N[C@@H](CC(C)C)C(=O)N[C@H](C(=O)N[C@@H](CCCNC(=N)N)C(=O)N[C@@H](CCC(N)=O)C(=O)N[C@@H](CCCNC(=N)N)C(=O)N[C@@H](Cc1ccc(O)cc1)C(=O)O)[C@@H](C)O | 6.3 | 0.02 | 0.21 |
| 400 | 13 | 200 | 1300 |  |  |  |  |  |  |  | CC[C@H](C)[C@H](NC(=O)[C@H](Cc1ccc(O)cc1)NC(=O)[C@H](Cc1cnc[nH]1)NC(=O)[C@H](CCCNC(=N)N)NC(=O)CCCCCNC(=O)[C@H](CCCCN)NC(=O)[C@H](CO)NC(=O)[C@@H]1CCCN1C(=O)[C@@H](N)Cc1ccc(O)cc1)C(=O)N[C@@H](CC(N)=O)C(=O)N[C@@H](CC(C)C)C(=O)N[C@H](C(=O)N[C@H](C(=O)N[C@@H](CCCNC(=N)N)C(=O)N[C@@H](CCC(N)=O)C(=O)N[C@@H](CCCNC(=N)N)C(=O)N[C@@H](Cc1ccc(O)cc1)C(=O)O)[C@@H](C)O)[C@@H](C)CC (H-YPSK[Ahx]RHYINLITRQRY-OH) |  |  |  |
